From patent US3933853A, “Indole derivatives” (Clin Midy, priority 1972, dated 1976)
Where two headings read alike, the source gives them in different places.

Experiments:
[1] = system: visceral pain in the mouse; assay: Analgesic effect, Koster and Anderson test (visceral pain induced by intraperitoneal acetic acid); format: in vivo; details: oral, 30 minutes before acetic acid injection, read-out: ED50 (50% effective dose reducing by one half the number of symptoms of pain)
Experimental: A visceral pain is induced in the mouse by intraperitonal injection of a dilute solution of acetic acid (Koster and Anderson test).
The animals, which are starved on the day before the experiment, and separated into random batches of five, are treated with the products under test 30 minutes before injection of the irritant. Treatment was always performed orally.
After the acetic solution is injected the animals show symptoms of pain (stretching of the abdomen with extension of the back feet) which are counted during two spells of five minutes for each lot: from the fifth to the tenth minute and from the fifteen to the twentieth minute respectively after the acid is injected.
The ED50 value is expressed in mg per kg bodyweight.
These doses were obtained by oral administration of the products of the invention.

Acute toxicity (LD50) = details: in vivo, mouse
Excerpt: Moreover, the compounds of the present invention are not, in general, very toxic.
Toxicity, expressed in mg/kg bodyweight, is given below for certain other compounds when administered by the sub-cutaneous route and by the oral route.

central nervous system = assay: Tranquillising effect, exploration test (perforated board); format: in vivo; details: mouse, oral route
Experimental: Exploration test (perforated board): the number of holes explored by an animal (mouse) which has unrestricted movement and is placed on the board for the first time, are recorded.

[2] = sc, sub-cutaneous route, read-out: LD50 / toxicity, sub-cutaneous
[3] = oral route, read-out: LD50 / toxicity, oral

| Structure (SMILES) | ED50 [1] [mg/kg] | LD50 (Acute toxicity (LD50); [2]) [mg/kg] | LD50 (Acute toxicity (LD50); [3]) [mg/kg] | ED50 (central nervous system) [mg/kg] |
| --- | --- | --- | --- | --- |
| CC(Cc1cn(CCN(C)C)c2ccccc12)=NO [compound 5354] | 3 | – | – | – |
| CCN(CC)CCn1cc(CC(C)O)c2ccccc21 (centres unmarked) [compound 5938] | 1.5 | – | – | – |
| CCN(CC)CCn1cc(CC(C)=O)c2ccccc21 [compound 5477] | – | 200 | 400 | – |
| CC(=O)Cc1cn(CCN(C)C)c2ccccc12 [compound 5353] | 1.5 | – | – | 5 |
| COc1ccc(-n2cc(CC(C)O)c3ccccc32)cc1 (centres unmarked) [compound 5992] | – | > 400 | > 400 | 1 |
| CC(O)Cc1cn(CCN(C)C)c2ccccc12 (centres unmarked) [compound 5607] | 0.75 | 800 | > 800 | – |
| CC(Cc1cn(CCN(C)C)c2ccccc12)=NOCCN(C)C [compound 5444] | 6.25 to 12.5 | – | – | – |
| CC(=O)ON=C(C)Cc1cn(CCN(C)C)c2ccccc12 [compound 5472] | 0.75 to 1.5 | 400 | 200 | 5 |
| CCC(=O)ON=C(C)Cc1cn(CCN(C)C)c2ccccc12 [compound 5473] | 0.75 to 1.5 | 200 to 400 | > 400 | – |
